Literature values, collected in patent US20210161808A1, “Nasal Drug Delivery System of Brivaracetam or Salt Thereof” (Zenvision Pharma LLP, priority 2018, published 2021).
Read-outs that look alike come from different tables or passages of the source.

What was measured:
[1] = biological target: synaptic vesicle protein 2A (SV2A) (Homo sapiens, UniProt Q7L0J3); details: in the brain
Chain of synaptic vesicle protein 2A (SV2A) (Q7L0J3 whole entry): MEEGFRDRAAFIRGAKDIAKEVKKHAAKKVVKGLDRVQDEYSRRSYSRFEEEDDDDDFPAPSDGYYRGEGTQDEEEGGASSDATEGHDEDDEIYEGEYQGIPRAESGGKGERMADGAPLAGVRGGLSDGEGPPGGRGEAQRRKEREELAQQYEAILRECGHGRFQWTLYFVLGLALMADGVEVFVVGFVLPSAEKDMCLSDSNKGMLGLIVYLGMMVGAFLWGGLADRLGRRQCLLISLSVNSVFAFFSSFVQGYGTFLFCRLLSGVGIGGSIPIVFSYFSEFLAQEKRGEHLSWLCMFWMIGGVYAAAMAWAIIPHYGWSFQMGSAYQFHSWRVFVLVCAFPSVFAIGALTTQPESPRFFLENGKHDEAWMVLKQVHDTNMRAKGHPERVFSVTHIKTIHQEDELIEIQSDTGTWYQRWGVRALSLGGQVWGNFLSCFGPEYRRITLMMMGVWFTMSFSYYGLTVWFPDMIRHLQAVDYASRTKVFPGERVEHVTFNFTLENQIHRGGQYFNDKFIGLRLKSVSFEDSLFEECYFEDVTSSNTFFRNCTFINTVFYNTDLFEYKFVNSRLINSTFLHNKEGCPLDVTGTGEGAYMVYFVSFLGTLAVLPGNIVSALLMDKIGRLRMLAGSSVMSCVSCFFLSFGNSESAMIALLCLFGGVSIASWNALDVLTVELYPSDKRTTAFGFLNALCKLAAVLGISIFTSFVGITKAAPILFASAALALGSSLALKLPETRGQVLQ

CCC[C@@H]1CC(=O)N([C@@H](CC)C(N)=O)C1 [Brivaracetam, (2S)-2-[(4R)-2-oxo-4-propyltetrahydro-1H-pyrrol-1-yl] butanamide]
affinity for synaptic vesicle protein 2A (SV2A) [1]: high and selective affinity | solubility (in acetone): freely soluble | solubility (in acetonitrile): freely soluble | solubility (in buffer (pH 1.2, 4.5, and 7.4)): very soluble | solubility (in ethanol): very soluble | solubility (in glacial acetic acid): very soluble | solubility (in methanol): very soluble | solubility (in n-hexane): very slightly soluble | solubility (in toluene): soluble | solubility (in water): very soluble
